Experimental data reported in ChEMBL document CHEMBL1122489, “Pyrimidine derivatives. 4. Synthesis and antihypertensive activity of 4-amino-2-(4-cinnamoylpiperazino)-6,7-dimethoxyquinazoline derivatives” (J Med Chem, 1983).

Legend:
Type in all cases: functional
[1] = system: Rattus norvegicus; test: Antihypertensive activity rating in conscious SHR after 24 hr post dose at 10 mg/kg (po)
[2] = system: Rattus norvegicus; test: Antihypertensive activity rating in conscious SHR after 6 hr post dose at 10 mg/kg (po)
[3] = system: Rattus norvegicus; test: Antihypertensive activity rating in conscious SHR after 3 hr post dose at 10 mg/kg (po)
[4] = system: Rattus norvegicus; test: Antihypertensive activity rating in conscious SHR after 1 hr post dose at 10 mg/kg (po)
[5] = system: Rattus norvegicus; test: Maximum percent decrease in blood pressure in SHR dosed at 10 mg/kg (hour post dose in parentheses)
[6] = system: Rattus norvegicus; test: Antihypertensive activity rating in conscious SHR after 1 hr post dose at 1 mg/kg (po)
[7] = system: Rattus norvegicus; test: Maximum percent decrease in blood pressure in SHR dosed at 3 mg/kg (hour post dose in parentheses)
[8] = system: Rattus norvegicus; test: Antihypertensive activity rating in conscious SHR after 6 hr post dose at 1 mg/kg (po)
[9] = system: Rattus norvegicus; test: Antihypertensive activity rating in conscious SHR after 6 hr post dose at 0.3 mg/kg (po)
[10] = system: Rattus norvegicus; test: Antihypertensive activity rating in conscious SHR after 6 hr post dose at 3 mg/kg (po)
[11] = system: Rattus norvegicus; test: Antihypertensive activity rating in conscious SHR after 3 hr post dose at 1 mg/kg (po)
[12] = system: Rattus norvegicus; test: Antihypertensive activity rating in conscious SHR after 1 hr post dose at 3 mg/kg (po)
[13] = system: Rattus norvegicus; test: Antihypertensive activity rating in conscious SHR after 24 hr post dose at 0.3 mg/kg (po)
[14] = system: Rattus norvegicus; test: Maximum percent decrease in blood pressure in SHR dosed at 0.3 mg/kg (hour post dose in parentheses)
[15] = system: Rattus norvegicus; test: Antihypertensive activity rating in conscious SHR after 1 hr post dose at 0.3 mg/kg (po)
[16] = system: Rattus norvegicus; test: Antihypertensive activity rating in conscious SHR after 3 hr post dose at 0.3 mg/kg (po)
[17] = system: Rattus norvegicus; test: Antihypertensive activity rating in conscious SHR after 24 hr post dose at 3 mg/kg (po)
[18] = system: Rattus norvegicus; test: Antihypertensive activity rating in conscious SHR after 24 hr post dose at 1 mg/kg (po)
[19] = system: Rattus norvegicus; test: Antihypertensive activity rating in conscious SHR after 3 h post dose at 3 mg/kg (po)
[20] = system: Rattus norvegicus; test: Maximum percent decrease in blood pressure in SHR dosed at 1 mg/kg (hour post dose in parentheses)
[21] = system: Rattus norvegicus; test: Effect on blood pressure in renal hypertensive rats dosed at 3 mg/kg after 6 h
[22] = system: Rattus norvegicus; test: Effect on blood pressure in renal hypertensive rats dosed at 10 mg/kg after 1 h
[23] = system: Rattus norvegicus; test: Effect on mean blood pressure (initial) in renal hypertensive rats dosed at 3 mg/kg
[24] = system: Rattus norvegicus; test: Effect on blood pressure in renal hypertensive rats dosed at 10 mg/kg after 3 h
[25] = system: Rattus norvegicus; test: Effect on blood pressure in renal hypertensive rats dosed at 3 mg/kg after 3 h
[26] = system: Rattus norvegicus; test: Effect on blood pressure in renal hypertensive rats dosed at 3 mg/kg after 1 h
[27] = organism: Rattus norvegicus; test: Compound was tested for alpha-adrenoceptor blocking activity by its ability to antagonize norepinephrine contraction in the rat thoracic aorta; settings: read-out: pA2 (converted)
[28] = system: Rattus norvegicus; test: Effect on blood pressure in renal hypertensive rats dosed at 10 mg/kg after 6 h
[29] = system: Rattus norvegicus; test: Effect on blood pressure (initial) in renal hypertensive rats dosed at 10 mg/kg
[30] = Potency ratio in rat thoracic aorta
[31] = system: Rattus norvegicus; test: Effect on blood pressure in renal hypertensive rats dosed at 10 mg/kg after 24 h
[32] = system: Rattus norvegicus; test: Effect on blood pressure in renal hypertensive rats dosed at 3 mg/kg after 24 h

Compound	Activity [1]	Activity [2]	Activity [3]	Activity [4]	Decrease [5] [%]	Activity [6]	Decrease [7] [%]	Activity [8]	Activity [10]	Activity [11]	Activity [12]	Activity [17]	Activity [18]	Activity [19]	Decrease [20] [%]	other results
COc1cc2nc(N3CCN(C(=O)/C=C/c4ccc(OC)c(OC)c4OC)CC3)nc(N)c2cc1OC	0	1	1	0	16	–	–	–	–	–	–	–	–	–	–	–
COc1cc2nc(N3CCN(C(=O)/C=C/c4cccc(C(F)(F)F)c4)CC3)nc(N)c2cc1OC	–	0	0	–	–	–	–	–	–	–	–	–	–	–	–	–
COc1cc2nc(N3CCN(C(=O)/C=C/c4cccs4)CC3)nc(N)c2cc1OC	–	–	–	–	–	1	24	1	2	1	2	0	0	1	14	Activity [9]: 1; Activity [13]: 0; Decrease [14]: 10%; Activity [15]: 0; Activity [16]: 0
COc1cc2nc(N3CCN(C(=O)/C=C/c4ccc(Cl)c(Cl)c4)CC3)nc(N)c2cc1OC	–	0	0	–	–	–	–	–	–	–	–	–	–	–	–	–
COc1cc2nc(N3CCN(C(=O)/C=C/c4ccccc4C)CC3)nc(N)c2cc1OC	0	2	2	–	23	1	18	0	1	0	1	0	0	1	12	–
COc1cc2nc(N3CCN(C(=O)/C=C/c4ccsc4)CC3)nc(N)c2cc1OC	–	–	–	–	–	1	25	1	1	1	2	0	0	1	19	Activity [9]: 1; Activity [13]: 0; Decrease [14]: 11%; Activity [15]: 1; Activity [16]: 1
COc1cc2nc(N3CCN(C(=O)/C=C/c4ccc(C(C)C)cc4)CC3)nc(N)c2cc1OC	–	0	0	–	–	–	–	–	–	–	–	–	–	–	–	–
COc1cc2nc(N3CCN(C(=O)/C=C/c4ccccc4)CC3)nc(N)c2cc1OC	–	–	–	–	–	1	22	1	1	1	2	0	0	1	14	Activity [9]: 1; Mean blood pressure [21]: -7.2 mmHg; Mean blood pressure [22]: -12.6 mmHg; Mean blood pressure [23]: 195 mmHg; Mean blood pressure [24]: -14.1 mmHg; Activity [13]: 0; Mean blood pressure [25]: -6.8 mmHg; Decrease [14]: 10%; Mean blood pressure [26]: -3.7 mmHg; Kb [27]: 0.724 nM; Mean blood pressure [28]: -15.9 mmHg; Mean blood pressure [29]: 199 mmHg; Ratio [30]: 0.07; Activity [15]: 0; Activity [16]: 0; Mean blood pressure [31]: -14.1 mmHg; Mean blood pressure [32]: -0.1 mmHg
COc1cc2nc(N3CCN(C(=O)/C=C/c4cccc(C)c4)CC3)nc(N)c2cc1OC	0	1	1	0	18	–	–	–	–	–	–	–	–	–	–	–
COc1cc2nc(N3CCN(C(=O)/C=C/c4ccoc4)CC3)nc(N)c2cc1OC	–	–	–	–	–	–	19	–	1	–	1	0	–	1	–	–
CO.COc1cc(/C=C/C(=O)N2CCN(c3nc(N)c4cc(OC)c(OC)cc4n3)CC2)cc(OC)c1	0	0	0	0	–	–	–	–	–	–	–	–	–	–	–	–
COc1cc2nc(N3CCN(C(=O)/C=C/c4ccc(C)o4)CC3)nc(N)c2cc1OC.Cl	0	1	2	1	22	0	–	0	–	0	–	–	0	–	–	–
COc1cc2nc(N3CCN(C(=O)/C=C/c4sccc4C)CC3)nc(N)c2cc1OC.Cl	1	2	2	2	25	1	–	1	–	1	–	–	0	–	10	–
COc1cc2nc(N3CCN(C(=O)/C(C)=C/c4ccccc4)CC3)nc(N)c2cc1OC.Cl	–	–	–	–	–	0	16	1	1	0	1	0	0	0	12	–
COc1cc2nc(N3CCN(C(=O)/C=C/c4ccc(Br)cc4)CC3)nc(N)c2cc1OC.Cl	0	1	1	0	12	–	–	–	–	–	–	–	–	–	–	–
COc1cc2nc(N3CCN(C(=O)/C=C/c4ccc(C)cc4)CC3)nc(N)c2cc1OC.Cl	–	–	–	–	–	–	10	–	0	–	0	0	–	1	–	–
COc1cc2nc(N3CCN(C(=O)/C=C/c4ccc(Cl)cc4)CC3)nc(N)c2cc1OC.Cl	–	1	0	–	10	–	–	–	–	–	–	–	–	–	–	–
CCOc1ccccc1/C=C/C(=O)N1CCN(c2nc(N)c3cc(OC)c(OC)cc3n2)CC1.Cl	–	–	0	0	–	–	–	–	–	–	–	–	–	–	–	–
COc1cc2nc(N3CCN(C(=O)/C=C/c4ccc(C)s4)CC3)nc(N)c2cc1OC.Cl	–	–	–	–	–	–	14	–	0	–	0	0	–	1	–	–
COc1cccc(/C=C/C(=O)N2CCN(c3nc(N)c4cc(OC)c(OC)cc4n3)CC2)c1.Cl	0	1	1	–	12	–	–	–	–	–	–	–	–	–	–	–
COc1cc2nc(N3CCN(C(=O)/C=C/c4ccc(Cl)o4)CC3)nc(N)c2cc1OC.Cl	–	–	–	–	–	–	17	–	1	–	1	0	–	1	–	–
COc1cc2nc(N3CCN(C(=O)/C(C)=C/c4ccco4)CC3)nc(N)c2cc1OC.Cl	–	–	–	–	–	0	16	1	1	0	1	0	0	0	15	–
COc1cc2nc(N3CCN(C(=O)/C=C/c4cccc([N+](=O)[O-])c4)CC3)nc(N)c2cc1OC.Cl	–	0	0	–	–	–	–	–	–	–	–	–	–	–	–	–
COc1ccccc1/C=C/C(=O)N1CCN(c2nc(N)c3cc(OC)c(OC)cc3n2)CC1.Cl	–	0	0	–	–	–	–	–	–	–	–	–	–	–	–	–
COc1cc2nc(N3CCN(C(=O)/C=C/c4ccc(Cl)s4)CC3)nc(N)c2cc1OC.Cl	–	1	1	1	12	–	–	–	–	–	–	–	–	–	–	–
COc1cc2nc(N3CCN(C(=O)/C(C)=C/c4cccs4)CC3)nc(N)c2cc1OC.Cl	–	–	–	–	–	1	34	0	1	1	3	0	0	1	14	–
COc1cc2nc(N3CCN(C(=O)/C=C/c4ccc(OC(C)C)cc4)CC3)nc(N)c2cc1OC.Cl	0	1	1	0	19	–	–	–	–	–	–	–	–	–	–	–
COc1ccc(/C=C/C(=O)N2CCN(c3nc(N)c4cc(OC)c(OC)cc4n3)CC2)cc1	0	2	2	1	23	0	20	1	2	1	0	0	0	1	15	–
Cc1ccc(N(CC2=NCCN2)c2cccc(O)c2)cc1 [PHENTOLAMINE]	–	–	–	–	–	–	–	–	–	–	–	–	–	–	–	Kb [27]: 8.51 nM; Ratio [30]: 0.006
